Data set [1] relates to C. albicans. The data set is classed as cell-based, Candida albicans. To be noted: 24 h. An excerpt:
(§1) Seven microorganism strains were used to preliminarily evaluate the antimicrobial activity of PSTO2 and its analogues, including Staphylococcus aureus (S. aureus) (ATCC® 6538), methicillin-resistant Staphylococcus aureus (MRSA) (NCTC® 12493), Enterococcus faecalis (E. faecalis) (NCTC® 12697), E. coli (ATCC® 8739), Klebsiella pneumonia (K. pneumonia) (ATCC® 43816), Pseudomonas aeruginosa (P. aeruginosa) (ATCC® CRM 9027), Acinetobacter baumanni (A. baumanni) (BAA® 747), and Candida albicans (C. albicans) (ATCC® 10231). In this study, the strains were cultured in Mueller–Hinton broth (MHB), nutrient broth (NB), and yeast–peptone–dextrose broth (YPD-B) correspondingly at 37 °C, with shaking at 120 rpm. Each peptide was dissolved from 128 μM to 1 μM and mixed with the bacterium at 5 × 10^5 CFU/mL. In this process, bacteria with culture medium were used as the growth control group; PBS was set up as the vehicle control group; sterile culture medium was used as the blank control group; and Norfloxacin at a concentration of 2 mg/mL and amphotericin B at a concentration of 1 mg/mL were set up as the positive control group for bacteria and fungi, respectively.
(§2) After being incubated for 24 h, a Synergy HT plate reader (Bio-Tek, Shoreline, WA, USA) was used to detect the absorbance of each well in the 96-well plate at λ = 550 nm. The concentration at which no visible turbidity could be recorded was the MIC value. Beginning from the MIC value, 10 µL of solution in each clear well was dropped on the sterile agar plates. The plate was checked the next day for colony formation, and the lowest concentration at which no colony growing was recorded as an MBC value.

Data set [2] has as its system P. aeruginosa (ATCC 9027). The data set is classed as cell-based, Pseudomonas aeruginosa. Particulars: ATCC 9027, 24 h.
Text: as §1, §2

In data set [3] the test system is MCF-7. The class given is cell-based, human. To be noted: 24 h. The protocol: (§3) The percentage of cancer cell survival after being treated with peptides was assessed with 3-(4,5-dimethylthiazol-2-yl-)-2,5-diphenyltetrazolium bromide (MTT). The principle is the reduction process of the yellow tetrazolium to DMSO-soluble formazan crystals caused by the metabolic capability of living cells. All the cancerous and normal cells were obtained from the American Type Culture Collection (Rockville, VA, USA). Human lung cancer NCI-H838 and NCI-H460 were cultured in Roswell Park Memorial Institute (RPMI)-1640 medium (Gibco, Paisley, UK) and mixed with 10% (v/v) fetal bovine serum (FBS) (Gibco, Campinas, Brazil) and 1% penicillin–streptomycin (Gibco, Grand Island, NY, USA) 89/10/1 v/v/v). U251MG and MCF-7 were cultured in Dulbecco’s Modified Eagle medium (DMEM) (Gibco, Paisley, UK) and mixed with 10% FBS and 1% penicillin–streptomycin. HCT 116 was cultured in McCoy’s 5A (modified) medium (Gibco, Paisley, UK) and mixed with 10% FBS and 1% penicillin–streptomycin. MRC-5 and HaCat were cultured in Minimum Essential Medium (MEM) (Gibco, Paisley, UK) and mixed with 10% FBS and 1% penicillin–streptomycin. Cells were cultured and seeded in a 96-well plate at a density of 8000 cells/well with the corresponding medium and incubated for 24 h at 37 °C with 5% CO2. After 24 h of incubation, the cells were starved with a serum-free medium for 4 h at 37 °C. Then, the cells were incubated with different concentrations of peptide solution in a serum-free medium from 1 nM to 100 µM at 37 °C for 24 h. Meanwhile, triton X-100 (0.1%) (Sigma-Aldrich, St. Louis, MO, USA) and PBS were chosen as positive and negative controls. After 10 µL of MTT (5 mg/mL) was added to each well away from light and incubated at 37 °C for 2 h, the formazan generated by mitochondria was dissolved with DMSO. The absorbance was detected at a wavelength of 570 nm by a Synergy HT plate reader (Bio-Tek, Shoreline, WA, USA).

Data set [4] concerns U251MG. The data set is classed as cell-based, human. Particulars: 24 h. The method, then:
as §3

Data set [5] has as its system NCI-H460. The class given is cell-based, human. To be noted: 24 h. The protocol: as §3
Data set [6] has as its system NCI-H838. The class given is cell-based, human. Particulars: 24 h. The protocol:
as §3

Data set [7] has as its system MRSA (ATCC 12493) biofilm. The data set is classed as cell-based, methicillin-resistant Staphylococcus aureus. To be noted: ATCC 12493, 24 h. The method, then:
To test the anti-biofilm ability of PSTO2 and its analogues, three types of microorganisms (S. aureus ATCC® 6538, E. coli ATCC® 8739, and MRSA NCTC® 12493) were chosen. Tryptic soy broth (TSB) and Lysogeny broth (LB) were used to culture microorganisms. The peptide was dissolved in an autoclaved PBS solution and diluted into concentrations ranging from 51,200 µM to 100 µM. One µL of peptide solution of each concentration was added into a 96-well plate with 100 µL bacterium at 5 × 10^5 CFU/mL. The plate was incubated at 37 °C for 24 h, with shaking at 200 rpm. After overnight incubation, the planktonic bacteria were washed up. Then, 100 µL of methanol was used to fix the biofilms onto the bottom, and 100 µL of 0.1% crystal violet solution (Sigma-Aldrich, Gillingham, UK) was added to each well to stain the biofilms. After drying, 160 µL of acetic acid (30% in deionised water, Sigma-Aldrich, UK) was added to each well to dissolve the shaded parts. The absorbance was detected with the Synergy HT plate reader at λ = 595 nm.
For the MBEC assay, 100 µL of the bacterium of 5 × 10^5 CFU/mL was transferred into an empty 96-well plate, and the plate was incubated at 37 °C for 24 h to obtain the biofilms primarily. Then, the peptide solution from 512 µM to 1 µM was transferred into a corresponding well, followed by 24 h incubation at 37 °C, with shaking at 200 rpm. After this, the plate was handled using the identical method to the plate in the MBIC assay, and the absorbance of each well was detected with the Synergy HT plate reader at λ = 595 nm. The minimum concentration at which the peptide can eradicate the existing biofilm was recorded as the MBEC value.

In data set [8] the test system is K. pneumonia (ATCC 43816). The class given is cell-based, Klebsiella pneumonia. To be noted: ATCC 43816, 24 h.
Text: as §1, §2

The subject of data set [9] is horse red blood cells. The class given is cell-based. The protocol: To assess the haemolytic activity of PSTO2 and its analogues, 2% fresh defibrinated horse red blood cells (TCS Biosciences Ltd., Buckingham, UK) were acquired after being washed and resuspended in sterile PBS. Each peptide was dissolved in PBS to prepare solutions with concentrations ranging from 2 µM to 1024 µM. Subsequently, 100 µL of each peptide solution was mixed with 100 µL of the red blood cell suspension. The red blood cells treated with 1% triton X-100 and sterile PBS in equivalent volumes were set up as the positive and negative control groups, respectively. Then, all the samples were incubated at 37 °C for 2 h. Thereafter, the samples were centrifuged at 900× g for 10 min. Finally, 100 µL of supernatant of each sample was transferred into a 96-well plate, and the absorbance was recorded by a Synergy HT plate reader (Bio-Tek, Shoreline, WA, USA) at a wavelength of 570. The following equation was used to calculate haemolysis activity:Haemolysis activity = (Sample absorbance − Ab)/(Ap − Ab) × 100% where Ab refers to the mean value of absorbance of the negative control (incubated with PBS only), and Ap refers to the mean absorbance value of the positive control (incubated with triton X-100).

Data set [10] relates to A. baumannii (BAA 747). The data set is classed as cell-based, Acinetobacter baumanni. Particulars: BAA 747, 24 h.
Text: as §1, §2

Data set [11] deals with S. aureus (ATCC 6538). The class given is cell-based, Staphylococcus aureus. Particulars: ATCC 6538, 24 h.
Text: as §1, §2

Data set [12] has as its system HaCat. The class given is cell-based. Particulars: 24 h. The protocol: as §3
The subject of data set [13] is MRC-5. The class given is cell-based. Particulars: 24 h. The method, then: as §3

The record followed here is paper PMC11360180, “Enhancement of Antimicrobial Function by L/D-Lysine Substitution on a Novel Broad-Spectrum Antimicrobial Peptide, Phylloseptin-TO2: A Structure-Related Activity Research Study” (Pharmaceutics, 2024).

Where no end group is shown, it is not given here.

Turning to “FLSLIPHAISAVSALAKHL-NH2 [PSTO2, phylloseptin-TO2]”, the MBC in [1] was 128 µM; in data set [2], greater than 128 µM; in data set [8], 128 µM; in data set [10], greater than 128 µM; in data set [11], 4 µM. The minimum inhibitory concentration (MIC) in [1] is 32 µM; in [2], greater than 128 µM; in [8], 64 µM; in data set [10] it was greater than 128 µM. Also, the IC50 is 23.1 µM in data set [3]; 84 µM in [4]; 78.3 µM in data set [5]; 85.8 µM in data set [6]; 70.58 µM in data set [12]; 73.22 µM in data set [13]. In data set [7], the MBIC was 4 µM. The HC10 in [9] is recorded as 21.78.
